Source: US20230167101A1, “NOVEL INHIBITORS OF HISTONE […] P300/CBP FOR CANCER THERAPY” (BAYLOR COLLEGE OF MEDICINE, priority 2020, published 2023)

Target: T1, HAT domain of human p300 (Homo sapiens, UniProt Q09472)
T1 construct: The HAT domain (1195-1673) of human p300 was cloned, inserted into pGEX-KG vector; made in house; host or cells: E. coli BL21-CodonPlus
T1 sequence (Q09472 1195-1673): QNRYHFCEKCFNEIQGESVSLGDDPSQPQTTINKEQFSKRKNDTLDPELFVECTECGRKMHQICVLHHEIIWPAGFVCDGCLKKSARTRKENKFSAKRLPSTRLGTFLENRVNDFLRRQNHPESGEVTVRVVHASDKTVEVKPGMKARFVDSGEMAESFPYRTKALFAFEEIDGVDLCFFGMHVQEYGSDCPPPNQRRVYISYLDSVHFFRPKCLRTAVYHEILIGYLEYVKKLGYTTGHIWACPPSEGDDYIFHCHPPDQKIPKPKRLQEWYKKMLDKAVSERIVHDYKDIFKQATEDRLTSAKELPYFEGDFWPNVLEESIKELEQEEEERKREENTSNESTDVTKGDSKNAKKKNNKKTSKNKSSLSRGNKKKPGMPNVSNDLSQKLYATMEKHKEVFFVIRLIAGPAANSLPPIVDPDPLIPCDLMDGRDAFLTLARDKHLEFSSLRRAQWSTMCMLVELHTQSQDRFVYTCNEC
Assay: p300 HAT inhibition assay (3H-Ac-CoA, histone H3 (1-21) peptide)
Format: biochemical
Conditions: not given
Protocol: A biochemical assay to determine the activity and inhibition of recombinant HAT domain of human p300 was developed, using the substrate histone H3 (1-21) peptide and the ^3H-labeled cofactor Ac—CoA.
The HAT domain (1195-1673) of human p300 was cloned, inserted into pGEX-KG vector and the DNA sequence was verified by sequencing. The p300-HAT expression plasmid was transformed into E. coli BL21-CodonPlus strain (Agilent) and cultured at 37° C. in LB medium containing ampicillin (50 µg/mL) and chloramphenicol (34 µg/mL). After the optical density of the bacterial culture reached ~0.9 at 600 nm, p300 HAT expression was induced by adding 300 µM isopropylthiogalactoside (IPTG) at 18° C. for 48 hours. Cells were collected, lysed, centrifuged for 20 min at 20,000 rpm. The supernatant was subjected to column chromatography with glutathione sepharose resins. […] CBP, PCAF and Myst3 HATs were obtained using similar methods.
To determine inhibitory activity, a compound with concentrations ranging from 100 nM to 10 µM was incubated with p300-HAT (10 nM) in 20 µL of 50 mM phosphate buffer (pH = 7.0) containing 0.01% Brij-35 for 10 min at 25° C. […] After 30 min at 25° C., the reaction was stopped by adding 6 N formic acid (5 µL). 20 µL of reaction mixture was then transferred to a small piece of P81 filter paper (Whatman) that binds histone H3 peptide. The filter paper was washed 3x with 50 mM NaHCO3, dried, and transferred into a scintillation vial containing 2 mL of scintillation cocktail. Radioactivity on the filter paper was measured with a Beckman LS-6500 scintillation counter. IC50 values were obtained by using a standard sigmoidal dose response curve fitting in Prism (version 5.0, GraphPad Software, Inc., La Jolla, CA). IC50 values were the mean values from at least three experiments.

Compound	inhibitory activity against p300 HAT (in words)
CCCCc1ccc(-c2cc(CNCC3CCNCC3)sc2-c2ccc(CCCC)cc2)cc1 [Compound 23]	Loss of activity
CC(C)(C)c1ccc(-c2cc(COCC3CCNCC3)sc2-c2ccc(C(C)(C)C)cc2)cc1 [Compound 13]	complete loss of inhibitory activity

Same assay, conditions: p300 HAT

Compound	activity reduction relative to compound 12
CC(C)c1ccc(-c2cc(CNCC3CCNCC3)sc2-c2ccc(C(C)C)cc2)cc1 [Compound 22]	~ 8 x
CC(C)(C)c1ccc(-c2cc(CNCCC3CCNCC3)sc2-c2ccc(C(C)(C)C)cc2)cc1 [Compound 15]	~3 fold

Same assay, conditions: read-out: IC50 against p300 HAT

Compound	IC50 [µM]
CC(C)c1ccc(-c2cc(CNCC3CCNCC3)sc2-c2ccc(C(C)C)cc2)cc1 [Compound 22]	5.4
CC(C)(C)c1ccc(-c2cc(C(=O)NCC3CCNCC3)sc2-c2ccc(C(C)(C)C)cc2)cc1 [Compound 1]	8.6
CC(C)(C)c1ccc(-c2cc(CNCCCN)sc2-c2ccc(C(C)(C)C)cc2)cc1 [Compound 16]	3
c1cc(-c2ccc(-c3cc(CNCC4CCNCC4)sc3-c3ccc(-c4ccoc4)cc3)cc2)co1 [Compound 11]	1.7
CC(C)(C)c1ccc(-c2cc(CNCCC3CCNCC3)sc2-c2ccc(C(C)(C)C)cc2)cc1 [Compound 15]	2.2
CN(Cc1cc(-c2ccc(C(C)(C)C)cc2)c(-c2ccc(C(C)(C)C)cc2)s1)CC1CCNCC1 [Compound 20]	4.4
CC(C)(C)c1ccc(-c2cc(CNCC3CCNCC3)oc2-c2ccc(C(C)(C)C)cc2)cc1 [Compound 34]	9.8
CC(C)(C)c1ccc(-c2cc(CN(C=O)CC3CCNCC3)sc2-c2ccc(C(C)(C)C)cc2)cc1 [Compound 21]	7

Tested on: Kasumi-1 leukemia cells
Assay: Cellular histone acetylation, Western blot
Format: cell-based
Conditions: Kasumi-1 cells, 12 h, 5 and 10 µM
Protocol: Kasumi-1 leukemia cells were treated with increasing concentrations of these compounds for 12 h. Histone was extracted and subjected to electrophoresis separation and Western blot staining to determine levels of acetylation at various lysine residues. […] H3K27 seems to be the most sensitive cellular substrate of p300 HAT. […] This might be due to different mode of inhibition or cell permeability for the two compounds.
About 10^6 Kasumi-1 cells per well were incubated with compound 11 at 0, 5 and 10 µM for 12 hours. Histone proteins were extracted using EpiQuik total histone extraction kit (Epigentek), according to the manufacturer’s protocol. Equal amounts of histones (2 µg) were separated on SDS-PAGE and transferred to PVDF membranes. The blots were probed with primary antibodies against H3K9Ac, H3K18Ac, H3K27Ac and H3 (Cell Signaling), followed by anti-rabbit IgG (Thermo Scientific) secondary antibodies.

Compound	cellular acetylation of histone H3K9, H3K18 and H3K27
CC1=NN(c2ccc(C(=O)O)cc2)C(=O)/C1=C\c1ccc(-c2cc(C)c(C)cc2[N+](=O)[O-])o1 [Compound C646, reference compound]	inhibited
